Test results reported in PubChem BioAssay AID2060621 (Molecular Pharmacology Branch, DTP, NCI, 2025).
pIC50: −log10 of the molar value.

System: 324938-238-R-J1-PDC complex spheroids viability
Test: Anticancer human tumor 324938-238-R-J1-PDC patient-derived bladder carcinoma cell line growth inhibition [CLK]
Details: for pIC50: curve of first compound; for viability, T/C: stronger effect = lower value
Procedure, shortened: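 Multi-cell-type spheroids combined patient-derived tumor cells with HUVEC endothelial cells and human mesenchymal stem cells. Paired agents were dosed in half-log steps down from about clinical Cmax, or from 10 microM where Cmax was unknown.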

[1] = second compound 0.0316 µM, first compound 0.0316 µM
[2] = second compound 0.0316 µM, first compound 0.1 µM
[3] = second compound 0.0316 µM, first compound 0.316 µM
[4] = second compound 0.0316 µM, first compound 1 µM
[5] = second compound 0.1 µM, first compound 0.0316 µM
[6] = second compound 0.1 µM, first compound 0.1 µM
[7] = second compound 0.1 µM, first compound 0.316 µM
[8] = second compound 0.1 µM, first compound 1 µM
[9] = second compound 0.316 µM, first compound 0.0316 µM
[10] = second compound 0.316 µM, first compound 0.1 µM
[11] = second compound 0.316 µM, first compound 0.316 µM
[12] = second compound 0.316 µM, first compound 1 µM
[13] = second compound 1 µM, first compound 0.0316 µM
[14] = second compound 1 µM, first compound 0.1 µM
[15] = second compound 1 µM, first compound 0.316 µM
[16] = second compound 1 µM, first compound 1 µM
[17] = second compound 3.16 µM, first compound 0.0316 µM
[18] = second compound 3.16 µM, first compound 0.1 µM
[19] = second compound 3.16 µM, first compound 0.316 µM
[20] = second compound 3.16 µM, first compound 1 µM
[21] = second compound 10 µM, first compound 0.0316 µM
[22] = second compound 10 µM, first compound 0.1 µM
[23] = second compound 10 µM, first compound 0.316 µM
[24] = second compound 10 µM, first compound 1 µM
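Note: viability read after seven days of drug exposure.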
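Throughout, for viability, T/C: 100% = DMSO vehicle control wells.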

Compound: CC(Nc1ccc2c(c1)OCCn1cc(N3C(=O)OCC3C(F)F)nc1-2)C(N)=O (centres undefined) + CNC(=O)c1ccc(Nc2nc(OC3CCCC3)c3c(-c4ccc5nc(C)oc5c4)c[nH]c3n2)c(OC)c1
- pIC50 (second compound 0.0316 µM): 6.77
- pIC50 (second compound 0.1 µM): > 7.50
- pIC50 (second compound 0.316 µM): > 7.50
- pIC50 (second compound 1 µM): > 7.50
- pIC50 (second compound 3.16 µM): > 7.50
- pIC50 (second compound 10 µM): > 7.50
- viability, T/C [1]: 78.8%
- viability, T/C [2]: 52.5%
- viability, T/C [3]: 42.1%
- viability, T/C [4]: 35.5%
- viability, T/C (second compound 0.0316 µM, first compound 3.16 µM): 22.2%
- viability, T/C (second compound 0.0316 µM, first compound 10 µM): 15.3%
- viability, T/C [5]: 32.2%
- viability, T/C [6]: 28.1%
- viability, T/C [7]: 25%
- viability, T/C [8]: 21.1%
- viability, T/C (second compound 0.1 µM, first compound 3.16 µM): 20.2%
- viability, T/C (second compound 0.1 µM, first compound 10 µM): 13.6%
- viability, T/C [9]: 14%
- viability, T/C [10]: 10.9%
- viability, T/C [11]: 9.84%
- viability, T/C [12]: 9.27%
- viability, T/C (second compound 0.316 µM, first compound 3.16 µM): 6.34%
- viability, T/C (second compound 0.316 µM, first compound 10 µM): 5.89%
- viability, T/C [13]: 13.4%
- viability, T/C [14]: 12.3%
- viability, T/C [15]: 8.46%
- viability, T/C [16]: 6.86%
- viability, T/C (second compound 1 µM, first compound 3.16 µM): 5.9%
- viability, T/C (second compound 1 µM, first compound 10 µM): 4.88%
- viability, T/C [17]: 13.1%
- viability, T/C [18]: 9.57%
- viability, T/C [19]: 9.31%
- viability, T/C [20]: 7.44%
- viability, T/C (second compound 3.16 µM, first compound 3.16 µM): 7.17%
- viability, T/C (second compound 3.16 µM, first compound 10 µM): 4.87%
- viability, T/C [21]: 14.4%
- viability, T/C [22]: 9.66%
- viability, T/C [23]: 9.38%
- viability, T/C [24]: 7.73%
- viability, T/C (second compound 10 µM, first compound 3.16 µM): 7.48%
- viability, T/C (second compound 10 µM, first compound 10 µM): 4.64%

Compound: COc1c(OCCCN2CCOCC2)ccc2c3n(c(=NC(=O)c4cnc(N)nc4)nc12)CCN3 + CNC(=O)c1ccc(Nc2nc(OC3CCCC3)c3c(-c4ccc5nc(C)oc5c4)c[nH]c3n2)c(OC)c1
- pIC50 (second compound 0.0316 µM): 7.67
- pIC50 (second compound 0.1 µM): > 8.50
- pIC50 (second compound 0.316 µM): > 8.50
- pIC50 (second compound 1 µM): > 8.50
- pIC50 (second compound 3.16 µM): > 8.50
- pIC50 (second compound 10 µM): > 8.50
- viability, T/C (second compound 0.0316 µM, first compound 0.00316 µM): 72.8%
- viability, T/C (second compound 0.0316 µM, first compound 0.01 µM): 66.1%
- viability, T/C [1]: 41.3%
- viability, T/C [2]: 19.4%
- viability, T/C [3]: 7.32%
- viability, T/C [4]: 0.92%
- viability, T/C (second compound 0.1 µM, first compound 0.00316 µM): 36.3%
- viability, T/C (second compound 0.1 µM, first compound 0.01 µM): 34.7%
- viability, T/C [5]: 32.4%
- viability, T/C [6]: 19.4%
- viability, T/C [7]: 6.56%
- viability, T/C [8]: 1.65%
- viability, T/C (second compound 0.316 µM, first compound 0.00316 µM): 15.5%
- viability, T/C (second compound 0.316 µM, first compound 0.01 µM): 12.7%
- viability, T/C [9]: 10.2%
- viability, T/C [10]: 4.98%
- viability, T/C [11]: 2.15%
- viability, T/C [12]: 0.5%
- viability, T/C (second compound 1 µM, first compound 0.00316 µM): 15.6%
- viability, T/C (second compound 1 µM, first compound 0.01 µM): 12.1%
- viability, T/C [13]: 6.92%
- viability, T/C [14]: 4.04%
- viability, T/C [15]: 1.17%
- viability, T/C [16]: 0.45%
- viability, T/C (second compound 3.16 µM, first compound 0.00316 µM): 15.5%
- viability, T/C (second compound 3.16 µM, first compound 0.01 µM): 12.8%
- viability, T/C [17]: 8.33%
- viability, T/C [18]: 3.11%
- viability, T/C [19]: 0.87%
- viability, T/C [20]: 0.39%
- viability, T/C (second compound 10 µM, first compound 0.00316 µM): 14.3%
- viability, T/C (second compound 10 µM, first compound 0.01 µM): 10.3%
- viability, T/C [21]: 6.72%
- viability, T/C [22]: 3.94%
- viability, T/C [23]: 1.19%
- viability, T/C [24]: 0.48%
